Measured values from patent US8552035B2, “Phenanthrenone compounds, compositions and methods” (Pfizer Inc., priority 2008, dated 2013).

Columns and labels:
Type in all cases: cell-based
IL-1β = assay: LPS-induced human whole blood, IL-1β release; conditions: Homo sapiens, mean of donors; for inhibition at 0.00137174 µM: 1.371742 nM; for inhibition at 0.00411523 µM: 4.115226 nM; for inhibition at 0.0123457 µM: 12.34568 nM; for inhibition at 0.037037 µM: 37.03704 nM; for inhibition at 0.111111 µM: 111.1111 nM; for inhibition at 0.333333 µM: 333.3333 nM; for inhibition at 1 µM: 1000 nM
Experimental: (§1) Venous blood from human donors was collected as 10 ml aliquots in tubes containing sodium heparin (BD Vacutainer from Becton Dickinson and Company, Franklin Lakes, N.Y.). Blood was added to sterile polystyrene round bottom 96-well tissue culture plates (Corning Costar) at 180 Blood was placed in a humidified 37 C incubator with 5% CO2 while compounds were prepared (nearly 60 minutes).
(§2) Compounds were prepared from 10 mM stock solutions in dimethylsulfoxide (DMSO, Sigma-Aldrich). Stock compound was diluted in DMSO to give appropriate starting concentration then diluted serially 1/3 in DMSO (i.e. 15 μl compound+30 μl DMSO), followed by diluting each serial dilution 1/167 into vehicle solution (2% DMSO in phosphate buffered saline (Dulbecco's Phosphate Buffered Saline without calcium chloride without magnesium chloride, Invitrogen Corporation, Carlsbad Calif.)). Compound or vehicle was added to blood in 10 μl aliquots as triplicates, omitting the outside wells to minimize possible edge effects. The final highest concentration of each compound in the assay ranged from 3 to 0.3 μM. Final DMSO concentration in the assay was 0.1%. The plate containing the samples was gently vortexed to mix and replaced in the incubator. LPS stock (E. coli serotype 0111:B4, Sigma-Aldrich), stored in aliquots of 100 μg/ml in RPMI at −20° C., was diluted […] in RPMI to make a working stock solution. After 60 minutes of incubation, 10 μl of the prepared LPS working stock was added to the blood to a final concentration of 100 ng/ml. Wells to be used as negative control received RPMI media with no LPS. The plate was again gently vortexed and the plates incubated overnight for 22 hours. Following incubation, the blood was centrifuged at 1500×g for 5 minutes and the plasma removed to either freeze at −20° C. or assay for cytokine release.
(§3) IL-1β, IFNγ and TNFα protein levels were measured using Meso Scale assay kits (Meso Scale Discovery, Gaithersburg, Md., U.S.A.). Reagents were allowed to come to room temperature. Meso Scale plates were blocked with 150 μl of Meso Scale Block B diluent, gently shaking at room temperature for 60 minutes. Plates were washed 3× with wash buffer (PBS, Invitrogen Corporation, with 0.05% Tween-20, Sigma-Aldrich). Calibrators for standard curves were prepared in human plasma/serum assay diluent as a 1/5 serial dilution to achieve final concentrations ranging from 50000 pg/ml to 3.2 pg/ml. Samples were added at 10 to 20 μl/well and calibrators were added at 20 μl/well then incubated at room temperature with gentle shaking for 2 hours. Plates were again washed 3× with wash buffer. Detection antibody was diluted in human plasma/serum antibody diluent to 1 μg/ml and added to the plate at 20 μl/well. Plates were incubated as before for 2 hours and washed again. Read Buffer T (4×) was diluted 1:1 with mqH20 to 2× concentration and 150 μl added to each well. Plates were read on the SECTOR Imager 6000 (Meso Scale Discovery) to generate raw signal values.
(§4) Individual sample signal values were compared to positive and negative controls (vehicle treated blood with LPS and vehicle treated blood without LPS, respectively) to generate % inhibition. Triplicate values were averaged for each donor. The values for three or four donors were averaged and graphed using 4-parameter fit curves in the LabStats plug-in for the Microsoft Excel application.

IL-6 = assay: LPS-induced human whole blood, IL-6 release; conditions: mean of donors
TNFα = assay: LPS-induced human whole blood, TNFα release; conditions: Homo sapiens, mean of donors; for inhibition at 0.00137174 µM: 1.371742 nM; for inhibition at 0.00411523 µM: 4.115226 nM; for inhibition at 0.0123457 µM: 12.34568 nM; for inhibition at 0.037037 µM: 37.03704 nM; for inhibition at 0.111111 µM: 111.1111 nM; for inhibition at 0.333333 µM: 333.3333 nM; for inhibition at 1 µM: 1000 nM
Experimental: as §1, §2, §3, §4

IFNγ = assay: LPS-induced human whole blood, IFNγ release; conditions: mean of donors; for inhibition at 0.00137174 µM / inhibition at 0.00411523 µM / inhibition at 0.0123457 µM / inhibition at 0.037037 µM / inhibition at 0.111111 µM / inhibition at 0.333333 µM / inhibition at 1 µM / inhibition at 3 µM: Homo sapiens; for inhibition at 0.00137174 µM: 1.371742 nM; for inhibition at 0.00411523 µM: 4.115226 nM; for inhibition at 0.0123457 µM: 12.34568 nM; for inhibition at 0.037037 µM: 37.03704 nM; for inhibition at 0.111111 µM: 111.1111 nM; for inhibition at 0.333333 µM: 333.3333 nM; for inhibition at 1 µM: 1000 nM
Experimental: as §1, §2, §3, §4

Cc1ncccc1CNC(=O)c1ccc2c(c1)CC[C@@H]1C[C@@](O)(CCC(F)(F)F)CC[C@@]21Cc1ccccc1 [Comparator A, (4βS,7S,8αR)-4β-benzyl-7-hydroxy-N-((2-methylpyridin-3-yl)methyl)-7-(3,3,3-trifluoropropyl)-4β,5,6,7,8,8α,9,10-octahydrophenanthrene-2-carboxamide]
inhibition at 0.00137174 µM (IL-1β): 32% | inhibition at 0.00411523 µM (IL-1β): 22% | inhibition at 0.0123457 µM (IL-1β): 22.8% | inhibition at 0.037037 µM (IL-1β): 17.3% | inhibition at 0.111111 µM (IL-1β): 8.6% | inhibition at 0.333333 µM (IL-1β): 12.2% | inhibition at 1 µM (IL-1β): 15% | inhibition at 3 µM (IL-1β; 3000 nM): 16.4% | inhibition at 0.00137174 µM (IL-6; 1.371742 nM): 1.46% | inhibition at 0.00411523 µM (IL-6; 4.115226 nM): -4.34% | inhibition at 0.0123457 µM (IL-6; 12.34568 nM): -1.13% | inhibition at 0.037037 µM (IL-6; 37.03704 nM): -3.52% | inhibition at 0.111111 µM (IL-6; 111.1111 nM): -3.5% | inhibition at 0.333333 µM (IL-6; 333.3333 nM): -2.83% | inhibition at 1 µM (IL-6; 1000 nM): -0.89% | inhibition at 3 µM (IL-6; 3000 nM): -1.97% | inhibition at 0.00137174 µM (TNFα): 18.1% | inhibition at 0.00411523 µM (TNFα): -0.861% | inhibition at 0.0123457 µM (TNFα): 0.0309% | inhibition at 0.037037 µM (TNFα): -4.19% | inhibition at 0.111111 µM (TNFα): -3.82% | inhibition at 0.333333 µM (TNFα): -4.61% | inhibition at 1 µM (TNFα): -5.44% | inhibition at 3 µM (TNFα; 3000 nM): -3.04% | inhibition at 0.00137174 µM (IFNγ): 18.1% | inhibition at 0.00411523 µM (IFNγ): -1.7% | inhibition at 0.0123457 µM (IFNγ): 0.016% | inhibition at 0.037037 µM (IFNγ): -9.81% | inhibition at 0.111111 µM (IFNγ): 8.74% | inhibition at 0.333333 µM (IFNγ): -6.32% | inhibition at 1 µM (IFNγ): 16.5% | inhibition at 3 µM (IFNγ; 3000 nM): 28%

Oc1ccc2c(c1)CC[C@@H]1C[C@@](O)(c3ccccc3)[C@@H](O)C[C@@]21Cc1ccccc1 [Comparator F, (2R,3S,4aR,10aR)-4a-Benzyl-2-phenyl-1,2,3,4,4a,9,10,10a-octahydrophenanthrene-2,3,7-triol]
inhibition at 0.00137174 µM (IL-1β): -4.16% | inhibition at 0.00411523 µM (IL-1β): -6.16% | inhibition at 0.0123457 µM (IL-1β): -5.49% | inhibition at 0.037037 µM (IL-1β): -6.15% | inhibition at 0.111111 µM (IL-1β): -4.59% | inhibition at 0.333333 µM (IL-1β): -2.45% | inhibition at 1 µM (IL-1β): 0.22% | inhibition at 0.00137174 µM (TNFα): -2.51% | inhibition at 0.00411523 µM (TNFα): -8.12% | inhibition at 0.0123457 µM (TNFα): -6.79% | inhibition at 0.037037 µM (TNFα): -4.23% | inhibition at 0.111111 µM (TNFα): -6.35% | inhibition at 0.333333 µM (TNFα): -3.43% | inhibition at 1 µM (TNFα): 4.14% | IFNγ (% inhibition) (IFNγ; 3000 nM, 3 µM): 21.96% | inhibition at 0.00137174 µM (IFNγ): -12.4% | inhibition at 0.00411523 µM (IFNγ): -15.3% | inhibition at 0.0123457 µM (IFNγ): -8.35% | inhibition at 0.037037 µM (IFNγ): -13.4% | inhibition at 0.111111 µM (IFNγ): -4.6% | inhibition at 0.333333 µM (IFNγ): -3.3% | inhibition at 1 µM (IFNγ): 14.6% | inhibition at 3 µM (IFNγ; 3000 nM): 22%
